Measurements: patent US20010049389A1, “Arthropod-controlling composition” (priority 2000, published 2001)

How the values were obtained:
Format in all cases: in vivo
[1] = system: adult smokybrown cockroaches (Periplaneta fuliginosa); assay: Test Example 4: smoking formulation in 28 m^3 chamber, smokybrown cockroaches; conditions: 10 g smoking (Preparation example 25) in 28 m^3 chamber
Description: (§1) In a test chamber of 3 m×4 m and 2.3 m in height (28 m^3), two plastic cups were put at two corners, wherein each cup has ten (5 males and 5 females) adult German cockroaches (Blattella germanica) therein. Ten grams (10 g) of the smoking obtained in Preparation example 25 and 50g of magnesium oxide were charged into each of the cells in an aluminum container having an aluminum wall. The cell charged magnesium oxide has small holes. The aluminum container was dipped into water in the plastic container set in the test chamber. The smoking was heated to release the vaporized active ingredient by the reaction heats of magnesium oxide with water. After 2 hours, knock-down percentage was observed. Further, the cockroaches were transferred to a clean plastic cup and given foods and water. The mortality was observed after 7 days.
(§2) Furthermore, the same tests were performed except that six (3 males and 3 females) adult smokybrown cockroaches (Periplaneta fuliginosa) and six (3 males and 3 females) adult American cockroaches (Periplaneta americana) were used in place of ten German cockroaches.

[2] = system: termites (Coptotermes formosanus); assay: Test Example 9: treated soil after 3 months storage, termites; conditions: 10 ml of 0.5% (w/w) solution in 200 g soil, kept 3 months at 40° C. in the dark, after 10 days
Method: The Pyrone Compound was dissolved in water to give a 10 ml solution having 0.5% (w/w) of a concentration. The solution was mixed with 200 g of soil and air-dried. After keeping for 3 months at 40° C. and in the dark, about 10 g of the soil were put on a plastic Petri dish having 9 cm in diameter. The soil was wetted with distilled water and 10 termites (Coptotermes formosanus) were released thereon. After 10 days, the termites were observed and the percent moribund was 100%.

[3] = system: adult American cockroaches (Periplaneta americana); assay: Test Example 4: smoking formulation in 28 m^3 chamber, American cockroaches; conditions: 10 g smoking (Preparation example 25) in 28 m^3 chamber
Description: as §1, §2

[4] = system: adult German cockroaches (Blattella germanica); assay: Test Example 3: direct spray of oil solution, knock-down of German cockroaches; conditions: 1.5 ml of 0.5% oil solution sprayed directly, one minute after spraying
Method: A square of paper (side: 20 cm) was covered on the iron net set on the bottom of the metallic chamber (46 cm×46 cm, 70 cm in height). A container (8.75 cm in diameter, 7.5 cm in height, having 16-mesh net at the bottom and spreading butter on the wall for preventing escape) was set on the paper. In the container, ten (5 males and 5 females) adult German cockroaches (Blattella germanica) were released. By means of spray gun, 1.5 ml of the oil solution obtained in Preparation example 9 was applied to the test insects at a pressure of 0.42 kg/cm^2 from the upper part of the chamber. The container was taken out of the chamber 30 seconds after spraying and the test insects were transferred to a clean plastic cup. One minute after spraying, the knocked-down cockroaches were counted. As a result, the knock-down percentage was 100%. Reference compound was also tested and the knock-down percentage was 42%.

[5] = system: adult smokybrown cockroaches (Periplaneta fuliginosa); assay: Test Example 5: heating fumigant (ceramic plate) in 5.8 m^3 chamber, smokybrown cockroaches; conditions: heating fumigant (Preparation example 24, 500 mg) at about 200° C. in 5.8 m^3 chamber
Method: (§3) On the bottom of a cubic chamber having 1.8 m of side (5.8 m^3), the heating fumigant (ceramic plate) obtained in Preparation example 24 with an electric heater was set in the center. Two plastic cups were put at two corners in the chamber, wherein each cup has ten (5 males and 5 females) adult German cockroaches (Blattella germanica) therein. Two hours after turning on an electric current, the ceramic plate was heated to about 200° C. (200±5° C.) and the active ingredient was vaporized. The heating temperature was estimated by measuring a surface temperature of the ceramic plate with radiation pyrometer (TR-0506C produced by Minolta Company) in advance. Then, the knocked-down cockroaches were counted and the knock-down percentage was calculated. Further, the cockroaches were transferred to a clean plastic cup and given foods and water. The mortality was observed after 7 days.
as §2

[6] = system: adult German cockroaches (Blattella germanica); assay: Test Example 4: smoking formulation in 28 m^3 chamber, German cockroaches; conditions: 10 g smoking (Preparation example 25) in 28 m^3 chamber
Description: as §1

[7] = system: adult American cockroaches (Periplaneta americana); assay: Test Example 5: heating fumigant (ceramic plate) in 5.8 m^3 chamber, American cockroaches; conditions: heating fumigant (Preparation example 24, 500 mg) at about 200° C. in 5.8 m^3 chamber
Method: as §3, §2

[8] = system: female adult common mosquitoes (Culex pipiens pallens); assay: Test Example 2: oil solution spray in glass chamber, knock-down of common mosquitoes; conditions: 0.7 ml of 0.5% oil solution sprayed in 0.34 m^3 glass chamber, two repetitions
Method: Ten (5 males and 5 females) adult houseflies (Musca domestica) were released in a glass chamber (70 cm cube, capacity: 0.34 m^3). Seven-tenth milliliter (0.7 ml) of the oil solution obtained in Preparation example 9 was applied into the chamber with a spray gun at a pressure of 0.9 kg/cm^2. Fifteen minutes after spraying, the knocked-down houseflies were counted. Reference compound was also tested.
The same procedure was performed as in Test example 1 except that ten female adult common mosquitoes (Culex pipiens pallens) in place of houseflies were used. As a result of two repetitions, the knock-down percentage at 15 minutes after spraying was 100%.

[9] = system: centipede (Scolopendra subspinipes mutilans); assay: Test Example 22: oil-based aerosol spray, centipede; conditions: about 1000 mg of 1.0% oil-based aerosol sprayed, after 3 days
Method: According to Preparation examples 10-14, 1.0% oil-based aerosol of the Pyrone Compound was obtained. A container (12.5 cm in diameter, 17.5 cm in height, bottom covered 16-mesh iron net and inside wall painted butter for preventing tested pill bugs to escape) having a centipede (Scolopendra subspinipes mutilans) therein was set on the bottom center of a glass cylinder having 20 cm in diameter and 60 cm in height. About 1000 mg of the above oil-based aerosol were sprayed to the centipede from the upper part of the cylinder. After 30 seconds, the centipede was taken out and put into a clean plastic cup and given food and water. It was observed that the centipede was dead after 3 days.

[10] = system: cotton aphids (Aphis gossypii); assay: Test Example 15: foliar spray on cucumber, cotton aphids; conditions: 500 ppm dilution of flowable (Preparation example 7), 30 ml sprayed, after 6 days
Method: About 30 cotton aphids (Aphis gossypii) were put on a cucumber leaf (in first-leaf stage) grown in a 90 ml plastic cup.
Next day, the formulation obtained in Preparation example 7 was diluted with water containing a spreading agent (Tokurino produced by Nihon Nohyaku Co.) to make the concentration of the Pyrone Compound to 500 ppm. Thirty milliliters (30 ml) of the dilution were sprayed to the cucumber and air-dried. The plastic pot was put in a container and allowed to stand at 22±2° C. in a greenhouse. After 6 days, the mortality was 90% or more.

Cc1cc(O)c(C(=O)CC(C)C)c(=O)o1 [The Pyrone Compound]
Knock-down percentage (%) ([1]; after 2 hours): 100% | Mortality (%) ([1]; after 7 days): 100% | percent moribund [2]: 100% | Knock-down percentage (%) ([3]; after 2 hours): 100% | Mortality (%) ([3]; after 7 days): 75% | knock-down percentage [4]: 100% | Mortality (%) ([5]; after 7 days): 83% | Knock-down percentage (%) ([5]; two hours): 100% | Knock-down percentage (%) ([6]; after 2 hours): 100% | Mortality (%) ([6]; after 7 days): 100% | Mortality (%) ([7]; after 7 days): 67% | Knock-down percentage (%) ([7]; two hours): 100% | knock-down percentage at 15 minutes after spraying [8]: 100% | state of the centipede after spraying [9]: dead | mortality [10]: ≥ 90%
